Values joined by “and” are separate entries in the source; they are usually repeats but may differ in a detail not shown here. Equal values may be shown once. Read-outs that look alike come from different tables or passages of the source.
Columns and labels:
[1] = cited from earlier work
[2] = Filter paper test: ten 10-ml water washings, UV analysis of AI washed through; format: physicochemical; conditions: for R (rating factor, number of washings to deplete the AI): ten 10-ml water washings; for mobility on filter paper or soil: washed with several 10 ml aliquots of water
From the text: All of the polymers in this set of experiments were combined with the AI at a 70% AI by weight to 30% polymer by weight concentrations. […] The filter paper samples were applied to a slightly wet Buchner funnel to set the paper evenly and then ten 10-ml aliquots of de-ionized (DI) water were suctioned through the filter paper. Ultraviolet light (UV) analysis for each of the 10-ml fractions was used to determine the absorption of the AI (264 nm) washed through the filter paper and recorded as absorption versus each individual 10-ml wash.
The control for these systems was evaluated by placing methylene chloride solutions of the AI alone or the polymer alone onto the filter paper, drying overnight, and washing with ten 10-ml aliquots of DI water.
The AI was dry ground (mortar and pestle) with urea-formaldehyde flower foam as the cage material [commercial product (Foliage Fresh)] where the ratio of AI to flower foam was 70%/30% by weight. This mixture then was tumbled-coated with an organic solvent solution of a hydrophobic polymer (paraffin wax/hexane; polystyrene/toluene; silicone oil/toluene) in a round bottom flask. […] Small amounts (0.07 g) of the powder were placed on the filter paper and subsequently washed with ten 10-ml aliquots of DI water and analyzed in a similar manner as previously described.
Liquid samples of the AI-polymer combinations and AI control samples were applied to filter paper (Whatman #2) and dried for 24 hours at room temperature. The filter paper containing the AI-polymer combination or the AI control samples were placed in a Buchner funnel under water aspiration vacuum conditions, while ten 10-ml aliquots of water were applied to the top of the filter paper containing the AI-polymer or AI control material, which was then sucked through the filter paper and collected in the receiving flask that holds the funnel-vacuum attachment.
After each 10-ml aliquot of water was suctioned through the filter paper containing the sample, the suctioned solution then was removed and analyzed with a UV spectrometer for any AI that went through the water washing process. The ten 10-ml sequential washings were a simulation of how an AI applied to soil would remain on the soil and migrate through the soil under a rain environmental exposure condition.
Dry 100% solid samples were placed on the filter paper directly and subsequently washed with ten 10-ml aliquots in a similar manner as the liquid samples that were dried after placement on the filter paper.
Various concentrations of the AI's were dissolved in water or water and a co-solvent and analyzed at 254 nm or other UV/visible regions of the spectrum in order to establish a standard calibration curve of absorbance versus AI concentration.

[3] = Table 26, USDA Pesticide Properties Database

## CCOP(=S)(OCC)Oc1nc(Cl)c(Cl)cc1Cl [Chlorpyrifos]
[1]; [3]
  KOC: 6,000 mg/g

## COP(=S)(OC)SCn1nnc2ccccc2c1=O [Azinphosmethyl]
[1]; Tables 21-25
  KOC: 1000

## CCOP(=S)(OCC)Oc1nc(Cl)n(C(C)C)n1 [Isazofos]
[1]; Tables 21-25
  KOC: 155

## O=C(NC(=O)c1c(F)cccc1F)Nc1cc(Cl)c(OC(F)(F)C(F)C(F)(F)F)cc1Cl (stereo not shown) [Lufenuron]
[1]; Tables 21-25
  KOC: 41182

## O=C(O)Cc1cccc2ccccc12 [1-Napthylacetic Acid]
[1]; Tables 21-25
  KOC: 385

## CCNc1nc(NC(C)C)nc(SC)n1 [Ametryn]
[1]; Tables 21-25
  KOC: 316

## CCS(=O)(=O)c1cccnc1S(=O)(=O)NC(=O)Nc1nc(OC)cc(OC)n1 [Rimsulfuron]
[1]; Tables 21-25
  KOC: 47

## CCCOP(=S)(OCCC)SCC(=O)N1CCCCC1C (stereo not shown) [Piperophos]
[1]; Tables 21-25
  KOC: 5202

## CCOC(=O)c1ccccc1S(=O)(=O)NC(=O)Nc1nc(Cl)cc(OC)n1 [Chlorimuron-Ethyl]
[1]; Tables 21-25
  KOC: 106

## CC(C)C1(C)N=C(c2ncccc2C(=O)O)NC1=O (stereo not shown) [Imazapyr]
[2]; filter paper, 10-ml water washing 1, listed as AI Control
  % released: 49%
[2]; filter paper, 10-ml water washing 1, listed as IMI Acid
  % released: 41%
[2]; filter paper, 10-ml water washing 1, listed as IMI acid alone
  % released: 28%
[2]; filter paper, 10-ml water washing 2, listed as AI Control
  % released: 47% and 49%
[2]; filter paper, 10-ml water washing 2, listed as IMI Acid
  % released: 39% and 37%
[2]; filter paper, 10-ml water washing 2, listed as IMI acid alone
  % released: 30%
[2]; filter paper, 10-ml water washing 3, listed as AI Control
  % released: 4% and 2%
[2]; filter paper, 10-ml water washing 3, listed as IMI Acid
  % released: 14%
[2]; filter paper, 10-ml water washing 3, listed as IMI acid alone
  % released: 25%
[2]; filter paper, 10-ml water washing 4, listed as AI Control
  % released: 0%
[2]; filter paper, 10-ml water washing 4, listed as IMI Acid
  % released: 6% and 5%
[2]; filter paper, 10-ml water washing 4, listed as IMI acid alone
  % released: 13%
[2]; filter paper, 10-ml water washing 5, listed as AI Control
  % released: 0%
[2]; filter paper, 10-ml water washing 5, listed as IMI Acid
  % released: 0%
[2]; filter paper, 10-ml water washing 5, listed as IMI acid alone
  % released: 4%
[2]; filter paper, 10-ml water washing 6
  % released: 0%
[2]; filter paper, 10-ml water washing 7
  % released: 0%
[2]; filter paper, 10-ml water washing 8
  % released: 0%
[2]; filter paper, 10-ml water washing 9
  % released: 0%
[2]; filter paper, 10-ml water washing 10, * = not all released after 10 washings
  % released: 0%
[2]; filter paper, listed as AI Control
  R (rating factor, number of washings to deplete the AI): 3
[2]; filter paper, listed as AI control
  R (rating factor, number of washings to deplete the AI): 3
[2]; filter paper, listed as IMI Acid
  R (rating factor, number of washings to deplete the AI): 4
[2]; filter paper, listed as IMI acid alone
  R (rating factor, number of washings to deplete the AI): 5

## CC1CCCCC1NC(=O)Nc1ccccc1 (stereo not shown) [Siduron]
[1]; Tables 21-25
  KOC: 420

## COc1cc(OC)nc(NC(=O)NS(=O)(=O)c2ncccc2C(=O)N(C)C)n1 [Nicosulfuron]
[1]; Tables 21-25
  KOC: 21

## CN(C)C(=O)Nc1cccc(C(F)(F)F)c1 [Fluometuron]
[1]; Tables 21-25
  KOC: 67.4

## CCCC1COC(Cn2cncn2)(c2ccc(Cl)cc2Cl)O1 (stereo not shown) [Propiconazole]
[1]; Tables 21-25
  KOC: 1086

## CN(C)C(=O)Nc1ccc(Cl)cc1 [Monuron]
[1]; Tables 21-25
  KOC: 150

## COc1nc(C)nc(NC(=O)NS(=O)(=O)c2ccccc2Cl)n1 [Chlorsulfuron]
[1]; Tables 21-25
  KOC: 36.3

## Cc1nn(-c2cc(NS(C)(=O)=O)c(Cl)cc2Cl)c(=O)n1C(F)F [Sulfentrazone]
[1]; Tables 21-25
  KOC: 43

## CN(C)c1nc(=O)n(C2CCCCC2)c(=O)n1C [Hezazinone]
[1]; Tables 21-25
  KOC: 54

## COP(=O)(OC)O/C(C)=C/C(=O)N(C)C [Dicrotophos]
[1]; Tables 21-25
  KOC: 75

## O=C(Nc1ccccc1)Nc1cnns1 [Thidiazuron]
[1]; Tables 21-25
  KOC: 742

## COC(=O)c1cccc(C)c1S(=O)(=O)NC(=O)Nc1nc(OCC(F)(F)F)nc(N(C)C)n1 [Triflusulfuron-Methyl]
[1]; Tables 21-25
  KOC: 40

## CCOP(=S)(OCC)SCSCC [Phorate]
[1]; Tables 21-25
  KOC: 1660

## COc1nc(NC(C)C)nc(NC(C)C)n1 [Prometon]
[1]; Tables 21-25
  KOC: 150

## C[n+]1ccc(-c2cc[n+](C)cc2)cc1 [Paraquat]
[1]; [3]
  KOC: 1,000,000 mg/g

## CSc1nc(NC(C)C)nc(NC(C)C)n1 [Prometryn]
[1]; Tables 21-25
  KOC: 400

## CNC(=O)N(C)c1nnc(C(C)(C)C)s1 [Tebuthiuron]
[1]; [3]
  KOC: 80 mg/g

## CCc1cnc(C2=NC(C)(C(C)C)C(=O)N2)c(C(=O)O)c1 (stereo not shown) [Imazethapyr]
[1]; Tables 21-25
  KOC: 52

## O=C(O)c1c(Cl)ccc2cc(Cl)cnc12 [Quinclorac]
[1]; Tables 21-25
  KOC: 50

## COC(=O)c1ccccc1S(=O)(=O)NC(=O)Nc1nc(C)cc(C)n1 [Sulfometuron-Methyl]
[1]; Tables 21-25
  KOC: 85

## COP(=S)(OC)Oc1cc(Cl)c(I)cc1Cl [Iodufenphos]
[1]; Tables 21-25
  KOC: 50000

## CC(C)c1ccc(NC(=O)N(C)C)cc1 [Isoproturon]
[1]; Tables 21-25
  KOC: 122

## CC(C)Nc1nc(Cl)nc(NC(C)C)n1 [Propazine]
[1]; Tables 21-25
  KOC: 154

## COP(=S)(OC)Oc1ccc(SC)c(C)c1 [Fenthion]
[1]; Tables 21-25
  KOC: 1500

## CS(=O)(=O)NC(=O)c1cc(Oc2ccc(C(F)(F)F)cc2Cl)ccc1[N+](=O)[O-] [Fomesafen]
[1]; Tables 21-25
  KOC: 50

## CNC(=O)CSP(=S)(OC)OC [Dimethonate]
[1]; Tables 21-25
  KOC: 30

## CCCSP(=O)(OCC)Oc1ccc(Br)cc1Cl (stereo not shown) [Profenofos]
[1]; Tables 21-25
  KOC: 2016

## Clc1nc(Cl)nc(Nc2ccccc2Cl)n1 [Anilazine]
[1]; Tables 21-25
  KOC: 2000

## Cc1ccn2nc(S(=O)(=O)Nc3c(F)cccc3F)nc2n1 [Flumetsulam]
[1]; Tables 21-25
  KOC: 28

## CCOP(=S)(OCC)OC(Cl)C(Cl)(Cl)Cl (stereo not shown) [Chlorethoxyfos]
[1]; Tables 21-25
  KOC: 6100

## Cc1cccc2sc3nncn3c12 [Tricyclazole]
[1]; Tables 21-25
  KOC: 169

## CCOP(=S)(OCC)Oc1cc(C)nc(C(C)C)n1 [Diazinon]
[1]; [3]
  KOC: 1000 mg/g

## O=C(Nc1nc(OC(F)F)cc(OC(F)F)n1)NS(=O)(=O)c1ccccc1C(=O)O [Primisulfuron]
[1]; Tables 21-25
  KOC: 50

## CC(C)N.O=C(O)COc1ccc(Cl)cc1Cl [2,4-D Amine Salt (Control)]
[2]; R line of the washing table, filter paper
  R Values: 2
[2]; washing 1, sample applied to filter paper and dried
  % released: 94%
[2]; washing 2, sample applied to filter paper and dried
  % released: 6%
[2]; washing 4, sample applied to filter paper and dried
  % released: 0%
[2]; washing 5, sample applied to filter paper and dried
  % released: 0%
[2]; washing 6, sample applied to filter paper and dried
  % released: 0%
[2]; washing 7, sample applied to filter paper and dried
  % released: 0%
[2]; washing 8, sample applied to filter paper and dried
  % released: 0%
[2]; washing 9, sample applied to filter paper and dried
  % released: 0%
[2]; washing 10, * = not all of the sample was released after 10 washings
  % released: 0%
[2]; washing 33, sample applied to filter paper and dried
  % released: 0%

## CCNc1nc(Cl)nc(NC(C)C)n1 [Atrazine]
[1]; Tables 21-25
  KOC: 100

## CCOP(=S)(OCC)SCCSCC [Disulfuton]
[1]; Tables 21-25
  KOC: 13454

## CC(COc1ccc(Oc2ccccc2)cc1)Oc1ccccn1 (stereo not shown) [Pyriproxyfen]
[2]; filter paper/soil release system, washing 1 (first line)
  % released: 0%
[2]; filter paper/soil release system, washing 3
  % released: 0%
[2]; filter paper/soil release system, washing printed 1 (second line)
  % released: 0%
[2]
  mobility on filter paper or soil: no mobility
[2]; listed as PPF
  mobility on filter paper or soil: did not move with any of the water washes
[1]; clay-loam soils
  Koc: 58,000

## CN(C)C(=O)Nc1ccc(Cl)c(Cl)c1 [Diuron]
[1]; Tables 21-25
  KOC: 1067

## CC(C)C1(C)N=C(c2nc3ccccc3cc2C(=O)O)NC1=O (stereo not shown) [Imazaquin]
[1]; Tables 21-25
  KOC: 18

## COC(=O)c1ccccc1S(=O)(=O)NC(=O)N(C)c1nc(C)nc(OC)n1 [Tribenuron-Methyl]
[1]; Tables 21-25
  KOC: 31

## Nc1c(Cl)c(Cl)nc(C(=O)O)c1Cl [Picloram]
[1]; Tables 21-25
  KOC: 35

## CCOP(=S)(OCC)SCSC(C)(C)C [Terbufos]
[1]; [3]
  KOC: 500 mg/g

## CC(C)(C)C(O)C(Oc1ccc(Cl)cc1)n1cncn1 (stereo not shown) [Triadimenol]
[1]; Tables 21-25
  KOC: 273

## CCNc1nc(Cl)nc(NCC)n1 [Simazine]
[1]; Tables 21-25
  KOC: 130

## CCOP(=S)(OCC)Oc1ccc([N+](=O)[O-])cc1 [Parathion]
[1]; Tables 21-25
  KOC: 7660

## CCNc1nc(Cl)nc(NC(C)(C)C#N)n1 [Cyanazine]
[1]; Tables 21-25
  KOC: 190

## CCNc1nc(NC(C)(C)C)nc(SC)n1 [Terbutryn]
[1]; Tables 21-25
  KOC: 2000

Reference: US9801371B2, “Self-assembling polymer particle release system” (priority 2010, dated 2017)
